Data published in US20100227853A1, “INHIBITORS OF CYCLIC AMP PHOSPHODIESTERASES” (Trustees of Boston College, priority 2008, published 2010).
pIC50: −log10 of the molar value.

Legend:
Type in all cases: biochemical
PDE4A10 = molecular target: T1, PDE4A10 (Homo sapiens, UniProt P27815); experiment: in vitro enzyme assay, E. coli expressed and purified PDE4A10; conditions: read-out: IC50 (or AC200), PDE4A10
T1 construct: made in house; host or cells: E. coli

PDE4D2-CAT = molecular target: T2, PDE4D2-CAT (Homo sapiens, UniProt Q08499); experiment: in vitro enzyme assay, catalytic fragment of PDE4D2 (residues 86-413); conditions: catalytic fragment; AC200 = [Compound] that doubles PDE activity; read-out: IC50 (or AC200), PDE4D2-CAT
T2 construct: 86-413; made in house; host or cells: E. coli
T2 sequence (Q08499 388-715): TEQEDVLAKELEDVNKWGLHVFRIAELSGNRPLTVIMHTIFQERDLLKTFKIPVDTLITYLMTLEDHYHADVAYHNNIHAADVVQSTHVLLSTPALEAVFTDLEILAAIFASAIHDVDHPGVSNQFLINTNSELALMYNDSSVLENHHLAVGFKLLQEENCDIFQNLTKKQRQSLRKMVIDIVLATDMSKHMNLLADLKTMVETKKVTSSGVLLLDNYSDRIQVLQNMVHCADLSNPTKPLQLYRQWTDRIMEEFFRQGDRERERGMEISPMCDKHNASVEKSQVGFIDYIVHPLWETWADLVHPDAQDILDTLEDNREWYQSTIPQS

PDE4D2-FL = molecular target: T3, PDE4D2-FL (Homo sapiens, UniProt Q08499); experiment: in vitro enzyme assay, full-length PDE4D2 (residues 1-507); conditions: read-out: IC50 (or AC200), PDE4D2-FL
T3 construct: 1-507; made in house; host or cells: E. coli
T3 sequence (Q08499 303-809): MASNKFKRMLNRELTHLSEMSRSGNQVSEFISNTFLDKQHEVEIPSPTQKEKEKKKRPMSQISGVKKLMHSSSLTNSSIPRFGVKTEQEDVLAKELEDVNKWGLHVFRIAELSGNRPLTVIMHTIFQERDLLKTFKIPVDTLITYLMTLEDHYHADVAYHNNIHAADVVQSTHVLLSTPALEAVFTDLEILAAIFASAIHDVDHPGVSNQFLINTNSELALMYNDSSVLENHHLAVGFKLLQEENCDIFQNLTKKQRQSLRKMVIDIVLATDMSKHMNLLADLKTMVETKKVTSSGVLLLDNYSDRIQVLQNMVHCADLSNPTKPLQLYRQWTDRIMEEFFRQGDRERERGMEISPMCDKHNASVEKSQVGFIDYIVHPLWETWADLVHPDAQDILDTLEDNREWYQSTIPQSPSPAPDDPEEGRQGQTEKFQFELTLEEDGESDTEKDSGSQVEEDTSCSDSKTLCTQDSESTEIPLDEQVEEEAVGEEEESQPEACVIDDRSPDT

T1 sequence (P27815 1-825 isoform P27815-6, species assumed): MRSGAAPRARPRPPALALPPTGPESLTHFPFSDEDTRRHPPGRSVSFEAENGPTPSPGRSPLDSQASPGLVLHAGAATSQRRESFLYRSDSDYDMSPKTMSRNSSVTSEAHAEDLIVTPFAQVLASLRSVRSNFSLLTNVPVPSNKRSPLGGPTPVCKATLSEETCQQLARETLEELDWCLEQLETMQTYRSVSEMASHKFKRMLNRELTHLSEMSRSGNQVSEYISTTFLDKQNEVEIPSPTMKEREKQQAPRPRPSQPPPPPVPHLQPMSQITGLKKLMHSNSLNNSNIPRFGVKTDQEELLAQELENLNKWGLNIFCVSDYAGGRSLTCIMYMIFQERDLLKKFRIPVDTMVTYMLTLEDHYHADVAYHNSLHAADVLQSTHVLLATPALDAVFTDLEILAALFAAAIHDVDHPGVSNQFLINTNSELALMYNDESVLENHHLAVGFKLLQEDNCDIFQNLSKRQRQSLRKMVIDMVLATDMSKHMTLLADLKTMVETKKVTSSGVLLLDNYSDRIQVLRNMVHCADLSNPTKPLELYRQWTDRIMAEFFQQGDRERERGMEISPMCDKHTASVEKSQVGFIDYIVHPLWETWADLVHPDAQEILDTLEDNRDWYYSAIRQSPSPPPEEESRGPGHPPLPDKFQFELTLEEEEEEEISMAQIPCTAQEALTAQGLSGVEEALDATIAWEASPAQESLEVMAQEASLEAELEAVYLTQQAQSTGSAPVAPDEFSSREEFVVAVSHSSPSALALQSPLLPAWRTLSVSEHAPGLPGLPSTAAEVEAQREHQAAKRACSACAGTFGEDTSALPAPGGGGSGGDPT

N#Cc1sc2sc(C#N)c(-c3ccco3)c2c1N [Compound 30]
pIC50 (PDE4A10): < 5.70 | pIC50 (PDE4D2-CAT): > 7.00 | pIC50 (PDE4D2-FL): < 5.70
